Holding throughout (assay type): in vivo, Solanum tuberosum
Series [1] deals with Russet Burbank and Ranger Russet seed-tubers. In words: Example 5: sprout inhibition by C5 to C9 trans-2 aldehydes over prolonged storage (17 weeks). Particulars: 0.5, 0.75 and 1.0 mmol/kg tuber, 24 hours, 17 weeks at 8° C.; for inhibition of sprout development (in words): 95% RH. Here is the method:
(46° F.), 95% relative humidity (RH), for 17 weeks. As described more fully in Example 5, four-month-old tubers (previously stored at 4° C.) were treated (for 24 h) with different concentrations of the aldehydes in mid January. The treated tubers were then stored in the dark for 120 days (17 weeks).
Methods: Four-month-old Russet Burbank and Ranger Russet seed-tubers were taken from a 4° C. storage area and treated (Jan. 10, 2001) separately with 0, 0.5, 0.75 and 1.0 mmol/kg tuber of trans-2-pentenal, trans-2-hexenal, trans-2-heptenal, trans-2-octenal, and trans-2-nonenal in 3.9 L glass jars. The volume of inhibitor required to achieve the above rates was pipetted onto filter paper discs inside the lids of each jar. The concentration of inhibitors in the headspace of the jars was equal at 0.16 mmol/L. The tubers were enclosed in the jars and thus exposed to inhibitor vapor for 24 hours at 23° C. Control tubers were enclosed in a glass jar without any aldehyde. Following treatment, tubers were removed from the jars and placed at 8° C. (46° F.) (95% relative humidity) in the dark to sprout for 120 days (17 weeks). The experiment was set up in a randomized complete block design (5 replicates) with chemicals and concentrations arranged factorially. Effects of the aliphatic aldehydes on the development of etiolated sprouts were documented photographically and quantitatively (sprout number and fresh weight) after 120 days of storage.

In series [2] the test system is Russet Burbank seed tubers. Description: Example 4: sprout inhibition by aldehyde vapors, 26 days of sprouting. As to conditions: 12 hours vapor, 26 days at 18° C. Here is the method: Methods: Eleven-month-old Russet Burbank seed tubers were taken from a 4° C. storage area and exposed to trans-2-hexenal (0.6-4.3 mmol/kg), trans-2-heptenal (0.6-3.8 mmol/kg) and trans-2-octenal (0.5-2.5 mmol/kg) vapors separately in 3.9 L glass containers for 12 hours at 23° C. The aldehydes were applied to filter paper inside petri dishes within each jar. Control tubers were enclosed in a glass container without any aldehyde. Sprouts were ‘peeping’ (approximately 3 mm in length) at the time of treatment. Following treatment, tubers were placed at 18° C. (95% relative humidity) in the dark to sprout for 26 days. The experiment was set up in a randomized complete block design (5 replicates) with chemicals and concentrations arranged factorially. Effects of the aliphatic aldehydes on the development of etiolated sprouts were documented at 20 days (photographically) and 26 days of sprouting.

For a further series, the system named is Russet Burbank tubers. In words: Example 6: reconditioning, sprout fresh weight and fry color. As to conditions: 0.45 mmol/kg. Here is the method: Seven-month-old tubers from 4° C. (40° F.) storage were treated with 0.45 mmol/kg trans-2-nonenal for 17 hours at 23° C. The tubers were then placed at 14° C. (57° F.) to recondition. French fries were processed from the tubers through four weeks of reconditioning. Fry color (lightness or darkness) was quantified with a photovolt reflectance meter. High photovolt values indicate light-colored fries (high processing quality). Low photovolt values indicate low-quality, dark-colored fries.
Methods: Russet Burbank tubers were stored at 7° C. (44° F.) from harvest Oct. 29, 2000 to Jan. 26, 2001. The tubers were transferred to 4° C. (40° F.) on Jan. 26, 2001, until treatment on Apr. 2, 2001. Tubers were treated with 0.45 mmol/kg trans-2-nonenal in 9.2 L glass desiccators for 17 hours at 23° C. Following treatment, the tubers were placed at 14° C. (57° F.) to recondition for 0, 1, 2, 3 and 4 weeks. […] Fry darkness of the apical and basal ends of the fries was quantified with a photovolt reflectance meter within three minutes of frying. A high reflectance reading (photovolt unit) indicates light fry color due to a relatively low sugar level and thus a high-quality processed product. Conversely, a low reflectance reading indicates dark fry color due to high sugar content, resulting in low processing quality. […] Sprout fresh weight and fry color were recorded.

From patent US6855669B2, “Use of α,β unsaturated aliphatic aldehydes and ketones to inhibit potato tuber sprouting” (Washington State University Research Foundation, priority 2000, dated 2005) come the findings set out here.

`CC/C=C/C=O` [trans-2-pentenal]: in series [1], the “inhibition of sprout development (in words)” value (“inhibition” below) is listed as “inhibited sprouting in a concentration-dependent manner”.

With `CCCCC/C=C/C=O` [trans-2-octenal], the “Average Sprout Length” value was found to be 0 cm/tuber in series [2] (0.50 mmol/kg); 0 cm/tuber in series [2] (0.97 mmol/kg); 0 cm/tuber in series [2] (1.44 mmol/kg); 0.2 cm/tuber in series [2] (1.93 mmol/kg); 0.2 cm/tuber in series [2] (2.48 mmol/kg). For the same molecule, the “Sprout Fresh Weight” value was determined as 0 g/tuber in series [2] (0.50 mmol/kg); 0 g/tuber in series [2] (0.97 mmol/kg); 0 g/tuber in series [2] (1.44 mmol/kg); 0.10 g/tuber in series [2] (1.93 mmol/kg); 0.13 g/tuber in series [2] (2.48 mmol/kg). For the same molecule, the “external pitting damage to the periderm (in words)” value in series [1] is “did not induce external pitting damage”. In addition, the “inhibition” value in series [1] is listed as “totally inhibited sprout development”.

Take `CCCCCC/C=C/C=O` [trans-2-nonenal]: the “sprouts produced (fresh weight)” value with Russet Burbank tubers (17 hours at 23° C., four weeks of reconditioning at 57° F.) is recorded as 13.5 g fresh weight/12 tubers. Also, the “processing quality (fry color, photovolt reflectance) (in words)” value in the series on Russet Burbank tubers (from 2 to 4 weeks of reconditioning at 57° F.) is given as “continued to increase”. For the same molecule, in series [1], the “external pitting damage to the periderm (in words)” value was “did not induce external pitting damage” and the “inhibition” value was “totally inhibited sprout development”.

For `CCCC/C=C/C=O` [trans-2-heptenal], the “Average Sprout Length” value in series [2] (0.56 mmol/kg) was 0.2 cm/tuber; in series [2] (1.11 mmol/kg) it was 0 cm/tuber; in series [2] (1.69 mmol/kg) it was 0 cm/tuber; in series [2] (2.16 mmol/kg) it was 0 cm/tuber; in series [2] (3.85 mmol/kg), 0 cm/tuber. Besides, the “Sprout Fresh Weight” value in series [2] (0.56 mmol/kg) was 0.01 g/tuber; in series [2] (1.11 mmol/kg) it was 0 g/tuber; in series [2] (1.69 mmol/kg) it was 0 g/tuber; in series [2] (2.16 mmol/kg), 0 g/tuber; in series [2] (3.85 mmol/kg) it was 0 g/tuber. In addition, the “inhibition” value in series [1] is recorded as “inhibited sprouting in a concentration-dependent manner”.
